Experimental data: patent US20240368150A1 (Hoffmann-La Roche Inc., priority 2021, published 2024)
Where two headings read alike, the source gives them in different places.

What was measured:
MV-3 cells = assay: T-cell - TCB - MV3 killing assay (MCSP-TCB, RFP object count by Incucyte); format: cell-based, human
primary human T-cells [1] = assay: Proliferation assay after 5 days (CellTiter-Glo, CD3 stimulation; PBS counter screen); format: cell-based; conditions: CD3 stimulation; for Emax: read-out: Emax proliferation (% activation); for EC50: primary human T-cells, CellTiter-Glo after 5 days, EC50 of fitted sigmoidal curve, read-out: Tcell Proliferation CD3 EC50
How it was run: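 Cpds added to medium-only plates; 5 d culture. Readout CellTiter-Glo 2.0 (equal vol), RT 45 min equilibration, 15 min rocking RT, luminescence. ATP signal taken as cell number.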

primary human T-cells [2] = system: primary human T-cells
[3] = Homo sapiens, MV-3, 120 h, normalized: MCSP-TCB only = neutral control, 20 μM reference compound A1 = 100%; 5 d; read-out: MSCP TCB killing MV-3 cells 5 d Emax
[4] = primary human T-cells + MCSP-TCB, MV-3 RFP cells, 5 d; read-out: MSCP TCB killing MV-3 cells 5 d EC50
[5] = Homo sapiens, T-cell, 120 h, 5 days, normalized to reference compound A1 as stimulator control = 100%, DMSO neutral control
[6] = Homo sapiens, MV-3, 120 h, primary human T-cells + MCSP-TCB, MV-3 RFP cells, 5 d; read-out: MSCP TCB killing MV-3 cells 5 d EC50

SMILES | EC50 (primary human T-cells [2]) [nM] | Emax (MV-3 cells; [3]) [%] | EC50 (MV-3 cells; [4]) [nM] | Emax (primary human T-cells [1]; [5]) [%] | EC50 (primary human T-cells [1]; Homo sapiens, T-cell, 120 h) [nM] | MSCP TCB killing MV-3 cells 5 d Emax (MV-3 cells; normalized: MCSP-TCB only = neutral control, 20 μM reference compound A1 = 100%; 5 d) [%] | EC50 (primary human T-cells [1]) [nM] | Emax (MV-3 cells; Homo sapiens, MV-3, 120 h, read-out: MSCP TCB killing MV-3 cells 5 d Emax) [%] | EC50 (MV-3 cells; read-out: MSCP TCB killing MV-3 cells 5 d EC50; primary human T-cells + MCSP-TCB, MV-3 RFP cells, 5 d) [nM] | EC50 (primary human T-cells [1]; T-cell, 120 h) [nM] | Emax proliferation (% activation) (primary human T-cells [1]; 5 days, normalized to reference compound A1 as stimulator control = 100%, DMSO neutral control) | EC50 (MV-3 cells; [6]) [nM]
CC(C)(C)c1nnc(-c2cc3c(cc2F)S(=O)(=O)C[C@H](N)C(=O)N3Cc2ccc(C#N)cc2)o1 [Example 220, 4-[[(3R)-3-amino-7-(5-tert-butyl-1,3,4-oxadiazol-2-yl)-8-fluoro-1,1,4-trioxo-2,3-dihydro-1λ^6,5-benzothiazepin-5-yl]methyl]benzonitrile] | 238 |  |  | 102 |  |  |  | 100 | 390 | 564 |  | 
CC(C)(C)c1nnc(-c2cc3c(cc2F)S(=O)(=O)C[C@H](N)C(=O)N3Cc2ccc(Cl)nc2)o1 [Example 237, (3R)-3-amino-7-(5-tert-butyl-1,3,4-oxadiazol-2-yl)-5-[(6-chloro-3-pyridyl)methyl]-8-fluoro-1,1-dioxo-2,3-dihydro-1λ^6,5-benzothiazepin-4-one] | 526 | 84 | 450 | 106 | 1300 |  |  |  |  |  |  | 
CC(C)Oc1ccc(CN2C(=O)[C@@H](N)CS(=O)(=O)c3cc(F)c(-c4nnc(C(C)(C)C)o4)cc32)cn1 [Example 249, (3R)-3-amino-7-(5-tert-butyl-1,3,4-oxadiazol-2-yl)-8-fluoro-5-[(6-isopropoxy-3-pyridyl)methyl]-1,1-dioxo-2,3-dihydro-1λ^6,5-benzothiazepin-4-one] | > 10000 | 100 | 210 | 161 | 1240 |  |  |  |  |  |  | 
Cc1cc2c(cc1-c1nnc(C(C)(C)C)o1)N(Cc1ccc(Cl)cc1)C(=O)[C@@H](N)CS2(=O)=O [Example 272, (3R)-3-amino-7-(5-tert-butyl-1,3,4-oxadiazol-2-yl)-5-[(4-chlorophenyl)methyl]-8-methyl-1,1-dioxo-2,3-dihydro-1λ^6,5-benzothiazepin-4-one] | 1700 | 100 | 1090 | 102 | 790 |  |  |  |  |  |  | 
CC(C)(C)c1cnn(-c2cc3c(cc2F)S(=O)(=O)C[C@H](N)C(=O)N3Cc2ccc(Cl)cc2)c1 [Example 282, (3R)-3-amino-7-(4-tert-butylpyrazol-1-yl)-5-[(4-chlorophenyl)methyl]-8-fluoro-1,1-dioxo-2,3-dihydro-1λ^6,5-benzothiazepin-4-one] | 3710 | 74 | 880 | 96 | 5490 |  |  |  |  |  |  | 
CC(C)(C)n1cnc(-c2cc3c(cc2F)S(=O)(=O)C[C@H](N)C(=O)N3Cc2ccc(Cl)cc2)n1 [Example 286, (3R)-3-amino-7-(1-tert-butyl-1,2,4-triazol-3-yl)-5-[(4-chlorophenyl)methyl]-8-fluoro-1,1-dioxo-2,3-dihydro-1λ^6,5-benzothiazepin-4-one] | > 20000 | 100 | 80 | 93 | 338 |  |  |  |  |  |  | 
CN1CC(c2nc(-c3cc4c(cc3F)S(=O)(=O)C[C@H](N)C(=O)N4Cc3ccc(Cl)cc3)no2)CC(F)(F)C1 (stereo partly drawn) [Example 323, (3R)-3-amino-5-[(4-chlorophenyl)methyl]-7-[5-(5,5-difluoro-1-methyl-3-piperidyl)-1,2,4-oxadiazol-3-yl]-8-fluoro-1,1-dioxo-2,3-dihydro-1λ^6,5-benzothiazepin-4-one] | 403 | 100 | 90 | 109 | 229 |  |  |  |  |  |  | 
CN(CC(F)(F)F)c1nnc(-c2ccc3c(c2)N(Cc2ccc(Cl)cc2)C(=O)[C@@H](N)CS3(=O)=O)o1 [Example 392, (3R)-3-amino-5-[(4-chlorophenyl)methyl]-7-[5-[methyl(2,2,2-trifluoroethyl)amino]-1,3,4-oxadiazol-2-yl]-1,1-dioxo-2,3-dihydro-1λ^6,5-benzothiazepin-4-one] | 568 | 92 | 210 | 96 | 948 |  |  |  |  |  |  | 

Second part, led by results:

EC50 (primary human T-cells [2]) [nM] | SMILES | Emax (MV-3 cells; [3]) [%] | EC50 (MV-3 cells; [4]) [nM] | Emax (primary human T-cells [1]; [5]) [%] | EC50 (primary human T-cells [1]; Homo sapiens, T-cell, 120 h) [nM] | MSCP TCB killing MV-3 cells 5 d Emax (MV-3 cells; normalized: MCSP-TCB only = neutral control, 20 μM reference compound A1 = 100%; 5 d) [%] | EC50 (primary human T-cells [1]) [nM] | Emax (MV-3 cells; Homo sapiens, MV-3, 120 h, read-out: MSCP TCB killing MV-3 cells 5 d Emax) [%] | EC50 (MV-3 cells; read-out: MSCP TCB killing MV-3 cells 5 d EC50; primary human T-cells + MCSP-TCB, MV-3 RFP cells, 5 d) [nM] | EC50 (primary human T-cells [1]; T-cell, 120 h) [nM] | Emax proliferation (% activation) (primary human T-cells [1]; 5 days, normalized to reference compound A1 as stimulator control = 100%, DMSO neutral control) | EC50 (MV-3 cells; [6]) [nM]
34.1 | N[C@H]1CS(=O)(=O)c2cc(F)c(-c3nnc(C4CCCC(F)(F)C4)o3)cc2N(Cc2ccc(Cl)cc2)C1=O (stereo partly drawn) [Example 91, (3R)-3-amino-5-[(4-chlorophenyl)methyl]-7-[5-(3,3-difluorocyclohexyl)-1,3,4-oxadiazol-2-yl]-8-fluoro-1,1-dioxo-2,3-dihydro-1λ^6,5-benzothiazepin-4-one] | 93 | 20 | 139 | 125 |  |  |  |  |  |  | 
238 | NC(c1nnc(-c2cc3c(cc2F)S(=O)(=O)C[C@H](N)C(=O)N3Cc2ccc(Cl)cc2)o1)C(F)(F)F (stereo partly drawn) [Example 122, (3R)-3-amino-7-[5-(1-amino-2,2,2-trifluoro-ethyl)-1,3,4-oxadiazol-2-yl]-5-[(4-chlorophenyl)methyl]-8-fluoro-1,1-dioxo-2,3-dihydro-1λ^6,5-benzothiazepin-4-one] | 86 | 510 | 92 | 782 |  |  |  |  |  |  | 
75.7 | COC(=O)N1CCC(C)(c2nnc(-c3cc4c(cc3F)S(=O)(=O)C[C@H](N)C(=O)N4Cc3ccc(Cl)cc3)o2)CC1 [Example 171, methyl 4-methyl-4-[5-[(3R)-3-amino-5-[(4-chlorophenyl)methyl]-8-fluoro-1,1,4-trioxo-2,3-dihydro-1λ^6,5-benzothiazepin-7-yl]-1,3,4-oxadiazol-2-yl]piperidine-1-carboxylate] | 100 | 40 | 93 | 55.5 |  |  |  |  |  |  | 
158 | CC(C)(C)c1nnc(-c2cc3c(cc2F)[S+]([O-])C[C@H](N)C(=O)N3Cc2ccc(Cl)cc2)o1 (stereo partly drawn) [Example 186, (3R)-3-amino-7-(5-tert-butyl-1,3,4-oxadiazol-2-yl)-5-[(4-chlorophenyl)methyl]-8-fluoro-1-oxo-2,3-dihydro-1λ^4,5-benzothiazepin-4-one] |  | 130 | 94 |  | 100 | 710 |  |  |  |  | 
37 | CC(C)(C)c1nnc(-c2cc3c(cc2F)S(=O)(=O)C[C@H](N)C(=O)N3Cc2ccc(OC(F)(F)C(F)F)cc2)o1 [Example 232, (3R)-3-amino-7-(5-tert-butyl-1,3,4-oxadiazol-2-yl)-8-fluoro-1,1-dioxo-5-[[4-(1,1,2,2-tetrafluoroethoxy)phenyl]methyl]-2,3-dihydro-1λ^6,5-benzothiazepin-4-one] | 83 | 30 | 127 | 57.6 |  |  |  |  |  |  | 
59.5 | CC(C)Oc1ccc(CN2C(=O)[C@@H](N)CS(=O)(=O)c3cc(F)c(-c4nnc(C(C)(C)C)o4)cc32)cc1 [Example 254, (3R)-3-amino-7-(5-tert-butyl-1,3,4-oxadiazol-2-yl)-8-fluoro-5-[(4-isopropoxyphenyl)methyl]-1,1-dioxo-2,3-dihydro-1λ^6,5-benzothiazepin-4-one] | 104 | 10 | 95 | < 15.1 |  |  |  |  |  |  | 
< 162 | C[C@H](N)C(=O)N[C@H]1CS(=O)(=O)c2cc(F)c(-c3nnc(C(C)(C)C)o3)cc2N(Cc2ccc(Cl)cc2)C1=O [Example 262] | 92 | 30 | 101 | < 162 |  |  |  |  |  |  | 
57.4 | CC[C@H](NC)C(=O)N[C@H]1CS(=O)(=O)c2cc(F)c(-c3nnc(C(C)(C)C)o3)cc2N(Cc2ccc(Cl)cc2)C1=O [Example 270, (2S)-2-(methylamino)-N-[(3R)-7-(5-tert-butyl-1,3,4-oxadiazol-2-yl)-5-[(4-chlorophenyl)methyl]-8-fluoro-1,1,4-trioxo-2,3-dihydro-1λ^6,5-benzothiazepin-3-yl]butanamide] | 81 | 20 |  |  |  | 39.7 |  |  |  | 111 | 
177 | CC(C)(C)n1cc(-c2cc3c(cc2F)S(=O)(=O)C[C@H](N)C(=O)N3Cc2ccc(Cl)cc2)cn1 [Example 278, (3R)-3-amino-7-(1-tert-butylpyrazol-4-yl)-5-[(4-chlorophenyl)methyl]-8-fluoro-1,1-dioxo-2,3-dihydro-1λ^6,5-benzothiazepin-4-one] | 100 | 830 | 102 | 1080 |  |  |  |  |  |  | 
158 | CC(C)(C)c1nc(-c2cc3c(cc2F)S(=O)(=O)C[C@H](N)C(=O)N3Cc2ccc(Cl)cc2)no1 [Example 289, (3R)-3-amino-7-(5-tert-butyl-1,2,4-oxadiazol-3-yl)-5-[(4-chlorophenyl)methyl]-8-fluoro-1,1-dioxo-2,3-dihydro-1λ^6,5-benzothiazepin-4-one] | 97 |  | 124 | 187 |  |  |  |  |  |  | 120
284 | N[C@H]1CS(=O)(=O)c2ccc(-c3nnc(N4CCOC(F)(F)C4)o3)cc2N(Cc2ccc(Cl)cc2)C1=O [Example 391, (3R)-3-amino-5-[(4-chlorophenyl)methyl]-7-[5-(2,2-difluoromorpholin-4-yl)-1,3,4-oxadiazol-2-yl]-1,1-dioxo-2,3-dihydro-1λ^6,5-benzothiazepin-4-one] | 100 |  | 157 | 207 |  |  |  |  |  |  | 70
